Test results taken from BigSolDB 2.1.

C[C@]12CCC3=C4CCC(=O)C=C4CC[C@H]3[C@@H]1CC[C@@]2(O)CC#N
solubility (mole fraction)
Settings | 273.15 K | 278.15 K | 283.15 K | 288.15 K | 293.15 K | 298.15 K | 303.15 K | 308.15 K | 313.15 K | 318.15 K
in DMF | 0.0262 | 0.0275 | 0.0293 | 0.0303 | 0.0318 | 0.0333 | 0.0343 | 0.0354 | 0.0364 | 0.0374
in MTBE | 0.000258 | 0.000281 | 0.000302 | 0.000327 | 0.000355 | 0.000384 | 0.000416 | 0.00045 | 0.000489 | 0.000531
in THF | 0.0106 | 0.0115 | 0.0125 | 0.0138 | 0.0148 | 0.0158 | 0.0172 | 0.0182 | 0.0192 | 0.0201
in acetone | 0.00464 | 0.00495 | 0.00536 | 0.00576 | 0.00616 | 0.00667 | 0.00717 | 0.00777 | 0.00828 | 0.00899
in acetonitrile | 0.00125 | 0.00149 | 0.00172 | 0.00202 | 0.00232 | 0.00273 | 0.00313 | 0.00363 | 0.00414 | 0.00475
in ethanol | 0.000981 | 0.00122 | 0.00152 | 0.00189 | 0.00233 | 0.00287 | 0.00353 | 0.00434 | 0.00524 | 0.00637
in ethyl acetate | 0.00145 | 0.00167 | 0.00192 | 0.00215 | 0.00242 | 0.00273 | 0.00304 | 0.00338 | 0.00374 | 0.00414
in isopropanol | 0.000738 | 0.000899 | 0.0011 | 0.00131 | 0.00158 | 0.00192 | 0.00227 | 0.00273 | 0.00323 | 0.00378
in methanol | 0.00182 | 0.00209 | 0.00235 | 0.00269 | 0.00303 | 0.00344 | 0.00384 | 0.00434 | 0.00493 | 0.00553
in n-propanol | 0.00136 | 0.00161 | 0.00187 | 0.00219 | 0.00256 | 0.00298 | 0.00345 | 0.00399 | 0.00462 | 0.00532
in water | 5.99e-06 | 6.47e-06 | 6.99e-06 | 7.58e-06 | 8.19e-06 | 8.88e-06 | 9.62e-06 | 1.04e-05 | 1.13e-05 | 1.23e-05
